Laboratory results as given in patent US6399370B1, “Compositions and methods for use of defensin” (priority 1996, dated 2002).
Bridge positions count the residues as written; N and C are the ends. Ends that are not written are not given here.

Assays:
[1] = system: Escherichia coli; experiment: Antibiotic activity of extracts of 293 cells transfected with hBD-1 cDNA; format: cell-based; conditions: extracts of kidney cells transfected with full length hBD-1 cDNA; mock transfected did not
Procedure: (§1) Human embryonal kidney cells (293) (ATCC CRL 1573) grown in the absence of antibiotics were transfected with the pCMV mammalian reporter vector (Clontech) containing the full length hBD-1 cDNA. Transfected and control mock transfected cells were harvested at 24 to 48 hours postransfection, pelleted by centrifugation, resuspended in 10 mM phosphate buffer (pH 7.4) and lysed by brief sonication. Cell debris was removed by centrifugation and the resulting supernatant was tested for antibiotic activity. Approximately 10^3 or 10^4 bacteria were exposed to cell extracts for 2 hours in 10 mM phosphate buffer (pH 7.4) and cell viability was measured by plating several dilutions and counting colonies the following day.

[2] = system: Staphylococcus aureus; experiment: as above; format: cell-based; conditions: extracts of kidney cells transfected with full length hBD-1 cDNA; mock transfected did not
Procedure: as §1

[3] = system: Pseudomonas aeruginosa; experiment: as above; format: cell-based; conditions: extracts of kidney cells transfected with full length hBD-1 cDNA; mock transfected did not
Procedure: as §1

[4] = system: Pseudomonas aeruginosa; experiment: Colony count killing and salt dependence assay of synthetic hBD-1; format: cell-based
Procedure: FIG. 7 is a graph depicting salt sensitivity of hBD-1 antimicrobial activity against Pseudomonas aeruginosa. Synthetic hBD-1 was incubated with 5×10^4 colony forming units of P. aeruginosa in 100 μl of 10 mM phosphate buffer (pH 7.4) and the indicated concentrations of NaCl. Reactions were then incubated at 37° C. for 20 minutes. Serial dilutions were plated and colony counts were performed the following day.
(§2) Essentially, for assays involving Pseudomonas and Escherichia coli, approximately 5×10^4 bacterial cells were exposed to about 50 μg to 500 μg of synthetic hBD-1 in 10 mM phosphate buffer (pH 7.4) in a reaction volume of 100 μl. Samples were incubated at 37° C. for 20 minutes and were then diluted to 1 ml total volume with the corresponding test buffer. A volume of 100 μl of this solution and of two 10-fold serial dilutions thereof, were plated and incubated overnight at 37° C. to facilitate colony formation.
Salt dependence of antibiotic activity was measured essentially as described for α-defensins (Lehrer et al., 1983, supra; Selsted et al., 1984, supra). Briefly, approximately 5×10^4 bacterial cells were exposed to 50 μg of synthetic hBD-1 in 10 mM phosphate buffer (pH 7.4) containing varying concentrations of NaCl in a reaction volume of 100 μl. Reactions were incubated at 37° C. for 20 minutes and were then diluted to 1 ml total volume with the corresponding test buffer. […]

[5] = system: E. coli; experiment: Colony count killing assay of synthetic hBD-1; format: cell-based, Escherichia coli; conditions: synthetic hBD-1, low NaCl
Procedure: as §2

[6] = system: Escherichia coli; experiment: Broth culture assay of synthetic hBD-1 (optical density); format: cell-based; conditions: 500 μg synthetic hBD-1, 1×10^4 bacterial cells in 200 μl 0.25×LB, 7 hours, background subtracted; untreated 0.127
Procedure: A broth culture assay was also used to assess the antimicrobial activity of hBD-1 directed against Escherichia coli. In this instance, 1×10^4 bacterial cells in 200 μl of 0.25×LB broth were incubated at 37DC in the presence or absence of 500 μg of synthetic hBD-1. After 7 hours, the optical density at 630 nm of the cultures was recorded as a measure of bacterial growth. After subtraction of background due to growth medium, the average optical density of the untreated cultures was 0.127 whereas those containing hBD-1 was 0.004, indicating nearly complete suppression of bacterial growth.

[7] = system: Escherichia coli D31; experiment: Diffusion and liquid broth assays of lysates of mBD-1 transfected cells, incl. salt and pH dependency; format: cell-based
Procedure: (§3) FIG. 14 is a series of graphs depicting the results of antibacterial assays on mBD-1. In FIGS. 14A, 14B and 14C there is shown the results of antibacterial liquid broth coincubation assays. E. coli (FIG. 14A), S. aureus (FIG. 14B) and P. aertiginosa (FIG. 14C) were added at a concentration of 10^3 to 10^4 cfu to 50 μl of lysates obtained from cells transfected with vector containing full length mBD-1 cDNA (empty circles) or cells transfected with the vector alone (filled circles). Each circle shown represents the results of an individual transfection experiment. In FIG. 14D there is shown the salt sensitivity of the antimicrobial activity of mBD-1. Extracts of mBD-1 transfected cells were incubated with 5×10^4 colony-forming units of E. coli D31 in 100 mM phosphate buffer (pH 7.4) and the indicated concentrations of NaCl. After incubation at 37° C. for 1 hour, serial dilutions of bacteria were plated and colonies were counted the following day.
To test the antibacterial activity of mBD-1, lysates obtained from cells transfected with mBD-1 cDNA positioned in a transfection vector were analyzed. A clinical isolate of Staphylococcus aureus, Escherichia coli D31 (Steiner et al., 1981, Nature 292:246-248), and a clinical isolate of Pseudomonas aeruginosa were used as test organisms in both diffusion assays and liquid broth assays. […]
(§4) Antibacterial liquid broth assays were performed as previously described for α-defensins (Steiner et al., 1981, Nature 292:246-248). […] Cell viability was measured by plating several dilutions and counting colonies the following day. […]
To analyze the salt dependency of the activity of mBD-1 against E. coli D31, NaCl was added to aliquots of the agarose solution to obtain final concentrations of NaCl of 50 mM, 100 mM, 200 mM and 500 mM. The exact concentration of NaCl in the solutions was measured using Na or Cl sensitive electrodes (Microelectrodes). […]

[8] = system: Staphylococcus aureus (clinical isolate); experiment: Diffusion and liquid broth assays of lysates of mBD-1 transfected cells; format: cell-based; conditions: lysates of SW 13 cells transfected with mBD-1 cDNA
Procedure: as §3
(§5) To test the antibacterial activity of mBD-1, lysates obtained from cells transfected with mBD-1 cDNA positioned in a transfection vector were analyzed. […]
as §4

[9] = system: Pseudomonas aeruginosa (clinical isolate); experiment: as above; format: cell-based; conditions: lysates of SW 13 cells transfected with mBD-1 cDNA
Procedure: as §3, §5, §4

hBD-1: human β-defensin 1; synthetic mature peptide with disulfide bridges Cys5-Cys34, Cys12-Cys27, Cys17-Cys35; also tested as extracts of cDNA-transfected cells (DHYNCVSSGGQCLYSACPIFTKIQGTCYRGKAKCCK; disulfide 12-27, 17-35, 5-34; UniProt P60022 33-68, looked up)
antibiotic activity of transfected cell extracts [1]: exhibited antibiotic activity | antibiotic activity of transfected cell extracts [2]: exhibited antibiotic activity | antibiotic activity of transfected cell extracts [3]: exhibited antibiotic activity | hBD-1 concentrations at which bacterial killing was observed ([4]; low NaCl, 10 mM phosphate buffer pH 7.4, 37° C., 20 minutes): 60 to 500 µg/mL | bactericidal activity ([4]; synthetic hBD-1, low NaCl): potent bactericidal activity | bactericidal activity [5]: potent bactericidal activity | average optical density at 630 nm of cultures (bacterial growth) [6]: 0.004

B1: mBD-1: murine β defensin, tested as lysates of SW 13 cells transfected with full length mBD-1 cDNA (protein)
chain: MKTHYFLLVMICFLFSQMEPGVGILTSLGRRTDQYKCLQHGGFCLRSSCPSNTKLQGTCKPDKPNCCKS
antimicrobial activity of lysates ([7]; lysates of SW 13 cells transfected with mBD-1 cDNA, diffusion and liquid broth assays): active | antimicrobial activity in acidic pH ([7]; lysates of mBD-1 transfected cells, acidic pH): substantially diminished and lost | antimicrobial activity in high concentrations of NaCl ([7]; lysates of mBD-1 transfected cells, high NaCl): substantially diminished and lost | antimicrobial activity of lysates [8]: active | antimicrobial activity of lysates [9]: active
